# Reference: US7803930B2, “Antisense modulation of apolipoprotein B-expression” (Isis Pharmaceuticals, Inc., priority 2002, dated 2010)
# In the oligonucleotide strings, read from the 5' end, every base follows the letter of its sugar. An asterisk marks phosphorothioate; unmarked linkages are phosphodiester. Other units and linkages are bracketed, terminal groups are in braces. A string of capitals states the bases alone. e = 2'-O-(2-methoxyethyl) (MOE); [5mC] = 5-methylcytosine; d = 2'-deoxy (DNA)
# Legend:
# [1] = tested on: rabbit apolipoprotein B mRNA; experiment: Inhibition of rabbit apolipoprotein B mRNA levels in primary rabbit hepatocytes, real-time PCR; format: cell-based; design: % INHIB of rabbit apolipoprotein B mRNA levels: concentration or dose not given beside the values
# Text: Primary rabbit hepatocytes were purchased from Invitro Technologies (Gaithersburg, Md.) and maintained in Dulbecco's modified Eagle's medium (Gibco). When purchased, the cells had been seeded into 96-well plates for use in RT-PCR analysis and were confluent.
# In accordance with the present invention, a series of oligonucleotides was designed to target different regions of rabbit apolipoprotein B, using published sequences (GenBank accession number X07480.1, incorporated herein as SEQ ID NO: 808, GenBank accession number M17780.1, incorporated herein as SEQ ID NO: 809, and a sequence was derived using previously described primers (Tanaka, Journ. Biol. Chem., 1993,268, 12713-12718) representing an mRNA of the rabbit apolipoprotein B, incorporated herein as SEQ ID NO: 810). “Target site” indicates the first (5′-most) nucleotide number on the particular target sequence to which the oligonucleotide binds. All compounds in Table 21 are chimeric oligonucleotides (“gapmers”) 20 nucleotides in length, composed of a central “gap” region consisting of ten 2′-deoxynucleotides, which is flanked on both sides (5′ and 3′ directions) by five-nucleotide “wings”. The wings are composed of 2′-methoxyethyl (2′-MOE)nucleotides. The internucleoside (backbone) linkages are phosphorothioate (P═S) throughout the oligonucleotide. All cytidine residues are 5-methylcytidines. The compounds were analyzed for their effect on rabbit apolipoprotein B mRNA levels in primary rabbit hepatocytes by quantitative real-time PCR as described in other examples herein. Primary rabbit hepatocytes were treated with 150 nM of the compounds in Table 21. For rabbit apolipoprotein B the PCR primers were: • forward primer: AAGCACCCCCAATGTCACC (SEQ ID NO: 811) • reverse primer: […] (SEQ ID NO: 812) and the PCR probe was: FAM-[…]-TAMRA (SEQ ID NO: 813) where FAM (PE-Applied Biosystems, Foster City, Calif.) is the fluorescent reporter dye) and TAMRA (PE-Applied Biosystems, Foster City, Calif.) is the quencher dye. Data are averages from two experiments. If present, “N.D.” indicates “no data”.
# In accordance with the present invention, a subset of the antisense oligonuclotides in Example 42 was further investigated in dose-response studies. Treatment doses were 10, 50, 150 and 300 nM. ISIS 233160 (SEQ ID NO: 824), ISIS 233166 (SEQ ID NO: 830), ISIS 233172 (SEQ ID NO: 835), ISIS 233175 (SEQ ID NO: 838), and ISIS 233183 (SEQ ID NO: 846) were analyzed for their effect on rabbit apolipoprotein B mRNA levels in primary rabbit hepatocytes by quantitative real-time PCR as described in other examples herein.
# [2] = tested on: human apolipoprotein B mRNA; experiment: Inhibition of human apolipoprotein B mRNA levels in HepG2 cells, quantitative real-time PCR; format: cell-based; conditions: for % inhibition of apolipoprotein B mRNA levels / % INHIB 50 nm / % INHIB 150 nm / % INHIB / % Change in apolipoprotein B mRNA expression: HepG2 cells; for % inhibition of apolipoprotein B mRNA levels: normalized to untreated control, average of two experiments; for % INHIB (inhibition of human apolipoprotein B mRNA levels): HepG2 cells treated with 150 nM of compound, quantitative real-time PCR; for % Change in apolipoprotein B mRNA expression: 24 hour (Table 40)
# In short: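 Apolipoprotein B transcript was quantified by one-step TaqMan RT-PCR, normalized to GAPDH or RiboGreen RNA, and expressed as percent inhibition against an untreated-sample standard curve. HepG2 cells were harvested 16-24 h after oligonucleotide exposure, which was delivered with 3.75 μg/mL Lipofectin over 4-7 h at 80% confluency.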
# [3] = Table 11 gene walk, 50 nM, averages from two experiments
# [4] = Table 11 gene walk, 150 nM, averages from two experiments
# [5] = human apolipoprotein B mRNA, oligonucleotides targeting genomic sequence SEQ ID NO 334, averages from two experiments
# [6] = Table 13 gene walk, 50 nM, averages from two experiments
# [7] = Table 13 gene walk, 150 nM, averages from two experiments
# [8] = Table 17 variable gap, 50 nM, averages from three experiments
# [9] = Table 17 variable gap, 150 nM, averages from three experiments
substance,measurement,setting,value
233178 (antisense eG*eA*eT*eA*eA*d[5mC]*dT*d[5mC]*dT*dG*dT*dG*dA*dG*dG*eG*eT*eA*eG*e[5mC]) [compound 233178],% INHIB of rabbit apolipoprotein B mRNA levels,[1],0%
233187 (antisense eT*eG*eA*e[5mC]*eA*dG*dA*dT*dG*dA*dA*dG*dA*dG*dG*eA*eA*eG*eA*eA) [compound 233187],% INHIB of rabbit apolipoprotein B mRNA levels,[1],66%
"308638 (GCCTCAGTCTGCTTCGCACC; 1-10-9 MOE gapmer, phosphorothioate, chemistry not fully specified) [compound 308638]",% inhibition of apolipoprotein B mRNA levels,[2]; 12.5 nM oligonucleotide,42%
same,% inhibition of apolipoprotein B mRNA levels,[2]; 37 nM oligonucleotide,73%
same,% inhibition of apolipoprotein B mRNA levels,[2]; 75 nM oligonucleotide,91%
same,% inhibition of apolipoprotein B mRNA levels,[2]; 150 nM oligonucleotide,96%
same,% inhibition of apolipoprotein B mRNA levels,[2]; 300 nM oligonucleotide,97%
same,% INHIB 50 nm,"[2]; 50 nm oligonucleotide, variable deoxy gap position",91%
same,% INHIB 150 nm,"[2]; 150 nm oligonucleotide, variable deoxy gap position",94%
308621 (eT*eT*eT*eG*eG*dT*dA*dG*dG*d[5mC]*dT*d[5mC]*d[5mC]*dT*dT*eT*eT*eA*eG*eG; antisense) [compound 308621],% INHIB 50 nm,[2]; [3],56%
same,% INHIB 150 nm,[2]; [4],91%
281600 (antisense eG*eA*eT*e[5mC]*eA*dT*d[5mC]*dA*dG*dT*dG*dA*dT*dG*dG*e[5mC]*eT*eT*eT*eG) [compound 281600],% INHIB (inhibition of human apolipoprotein B mRNA levels),[2]; averages from two experiments,52%
301166 (antisense eA*eT*eT*e[5mC]*eT*dG*d[5mC]*d[5mC]*dT*d[5mC]*dT*dT*dA*dG*dA*eA*eA*eG*eT*eT) [compound 301166],% INHIB,[2]; [5],38%
"332774 (antisense GCCTCATTATTATTAGCACC; sugars from the 5' end e5 d10 e5, all phosphorothioate, methylation of C not given here) [compound 332774]",% Change in apolipoprotein B mRNA expression,[2]; 50 nM,+62%
same,% Change in apolipoprotein B mRNA expression,[2]; 150 nM,+66%
308629 (eA*eG*e[5mC]*e[5mC]*eT*d[5mC]*dA*dG*dT*d[5mC]*dT*dG*d[5mC]*dT*dT*e[5mC]*eG*e[5mC]*eG*e[5mC]; antisense) [compound 308629],% INHIB 50 nm,[2]; [6],77%
same,% INHIB 150 nm,[2]; [7],95%
301079 (eT*eG*eA*e[5mC]*eT*dG*dT*dT*dT*dT*dA*dA*dA*dA*dT*eT*eA*eG*eA*e[5mC]; antisense) [compound 301079],% INHIB,[2]; [5],20%
281632 (antisense eT*eG*eA*eT*eA*dG*dT*dG*d[5mC]*dT*d[5mC]*dA*dT*d[5mC]*dA*eA*eG*eA*e[5mC]*eT) [compound 281632],% INHIB (inhibition of human apolipoprotein B mRNA levels),[2]; averages from two experiments,75%
308590 (antisense eA*e[5mC]*e[5mC]*eT*eT*d[5mC]*dT*dG*d[5mC]*dT*dT*dG*dA*dG*dT*eT*eA*e[5mC]*eA*eA) [compound 308590],% INHIB 50 nm,[2]; [3],26%
same,% INHIB 150 nm,[2]; [4],98%
270998 (antisense e[5mC]*eG*e[5mC]*eT*eG*dA*dT*d[5mC]*d[5mC]*d[5mC]*dT*d[5mC]*dG*d[5mC]*d[5mC]*eA*eT*eG*eT*eT) [compound 270998],% INHIB (inhibition of human apolipoprotein B mRNA levels),[2]; averages from two experiments,1%
301178 (antisense eA*eG*eG*eA*eT*dT*d[5mC]*d[5mC]*d[5mC]*dA*dA*dG*dA*d[5mC]*dT*eT*eT*eG*eG*eA) [compound 301178],% INHIB,[2]; [5],38%
281645 (eT*e[5mC]*eT*eG*e[5mC]*dA*d[5mC]*dT*dG*dA*dA*dG*dT*d[5mC]*dA*e[5mC]*eG*eG*eT*eG; antisense) [compound 281645],% INHIB (inhibition of human apolipoprotein B mRNA levels),[2]; averages from two experiments,78%
301140 (eG*e[5mC]*eA*eT*eA*d[5mC]*dA*dA*dG*dT*d[5mC]*dA*d[5mC]*dA*dT*eG*eA*eG*eG*eT; antisense) [compound 301140],% INHIB,[2]; [5],34%
301130 (e[5mC]*eT*eG*eA*e[5mC]*dA*d[5mC]*dA*d[5mC]*d[5mC]*dA*dT*dG*dT*dT*eA*eT*eT*eA*eT; antisense) [compound 301130],% INHIB,[2]; [5],10%
301226 (antisense e[5mC]*eT*eT*eA*eA*dA*dT*d[5mC]*dA*d[5mC]*dA*d[5mC]*dT*dA*dT*eG*eT*eG*eT*eT) [compound 301226],% INHIB,"[2]; Table 15, 150 nM, averages from two experiments",39%
301032 (e[5mC]*eT*eA*e[5mC]*eT*dG*d[5mC]*dA*dA*dG*dG*d[5mC]*dT*dG*dG*e[5mC]*eT*e[5mC]*eA*e[5mC]; antisense) [compound 301032],% INHIB (inhibition of human apolipoprotein B mRNA levels),[2]; averages from two experiments,63%
301084 (antisense eA*e[5mC]*eA*e[5mC]*eG*dG*dT*dA*dT*d[5mC]*d[5mC]*dT*dA*dT*dG*eG*eA*eG*eG*eA) [compound 301084],% INHIB,[2]; [5],49%
301070 (eG*eT*eT*eG*eG*dA*d[5mC]*dA*dG*dT*d[5mC]*dA*dT*dT*d[5mC]*eT*eT*eT*eT*eG; antisense) [compound 301070],% INHIB,[2]; [5],38%
301105 (antisense eG*eG*e[5mC]*e[5mC]*eA*dT*dG*dT*dA*dA*dA*dT*dT*dG*d[5mC]*eT*e[5mC]*eA*eT*e[5mC]) [compound 301105],% INHIB,[2]; [5],7%
301016 (e[5mC]*e[5mC]*eT*e[5mC]*eA*dG*d[5mC]*dG*dG*d[5mC]*dA*dG*d[5mC]*dA*dA*e[5mC]*e[5mC]*eG*eA*eG; antisense) [compound 301016],% INHIB (inhibition of human apolipoprotein B mRNA levels),[2]; averages from two experiments,62%
308595 (antisense eT*e[5mC]*eT*eG*e[5mC]*dT*dT*d[5mC]*dG*d[5mC]*dA*d[5mC]*d[5mC]*dT*dT*e[5mC]*eT*eG*e[5mC]*eT) [compound 308595],% INHIB 50 nm,[2]; [3],60%
same,% INHIB 150 nm,[2]; [4],82%
"308648 (antisense GCCTCAGTCTGCTTCGCGCC; 6-10-4 2'-MOE gapmer, phosphorothioate, chemistry not fully specified) [compound 308648]",% INHIB 50 nm,[2]; [8],78%
same,% INHIB 150 nm,[2]; [9],89%
"308639 (GCCTCAGTCTGCTTCGCGCC; all C 5-methyl, all phosphorothioate, sugars by position not given here; further chemistry not fully specified) [compound 308639]",% INHIB 50 nm,[2]; [8],86%
same,% INHIB 150 nm,[2]; [9],94%
281629 (antisense eT*e[5mC]*e[5mC]*eA*eA*dG*dT*d[5mC]*d[5mC]*dT*dG*dG*d[5mC]*dT*dG*eT*eA*eT*eT*e[5mC]) [compound 281629],% INHIB (inhibition of human apolipoprotein B mRNA levels),[2]; averages from two experiments,83%
308626 (eA*eG*eT*e[5mC]*eT*dG*d[5mC]*dT*dT*d[5mC]*dG*d[5mC]*dG*d[5mC]*d[5mC]*eT*eT*e[5mC]*eT*eG; antisense) [compound 308626],% INHIB 50 nm,[2]; [6],38%
same,% INHIB 150 nm,[2]; [7],94%
301169 (antisense eA*e[5mC]*e[5mC]*eT*e[5mC]*d[5mC]*d[5mC]*dA*dG*dA*dA*dG*d[5mC]*d[5mC]*dT*eT*e[5mC]*e[5mC]*eA*eT) [compound 301169],% INHIB,[2]; [5],22%
271042 (eA*eG*eT*eT*eT*d[5mC]*d[5mC]*dT*d[5mC]*dA*dT*d[5mC]*dA*dG*dA*eT*eT*e[5mC]*e[5mC]*e[5mC]; antisense) [compound 271042],% INHIB (inhibition of human apolipoprotein B mRNA levels),[2]; averages from two experiments,57%
301091 (antisense eG*eA*eG*eA*eT*dT*dG*dG*dA*dG*dA*d[5mC]*dG*dA*dG*e[5mC]*eA*eT*eT*eT) [compound 301091],% INHIB,[2]; [5],35%
